From patent publication US20230027066A1 (Urovant Sciences GmbH, priority 2019, published 2023)

Columns and labels:
men and women with OAB = assay: Phase 2b study of vibegron in OAB, Part 1, efficacy at Week 8 (voiding diary); format: in vivo, human
From the text: Part 2 was designed to continue to assess the safety and efficacy of concomitant dosing. […] Subjects in both Part 1 and Part 2 had the option of enrolling in a 1-year extension. Participants were required to keep a voiding diary, recording the occurrence of each strong urge, total incontinence, and urge incontinence episode. Efficacy data for Part 1 and Part 2 are summarized herein.
The total number of urgency incontinence episodes must have exceeded the total number of stress incontinence episodes for all subjects.

[1] = Phase 1 multiple-dose study in healthy subjects, maximum MA4 heart rate; format: in vivo, human; conditions: for Maximum MA4 HR (maximum change from baseline in moving average of heart rate over 4 hours postdose), LS mean (90% CI) / Maximum MA4 HR, difference from placebo (90% CI): Day 14
Description: More intensive assessments of heart rate and blood pressure were performed in healthy volunteers in several Phase 1 studies. […] Doses ranged from 25 to 400 mg once daily for 7 to 28 days depending on the cohort. Least squares mean and 90% confidence intervals of maximum change from baseline in moving average of heart rate over 4 hours postdose (MA4 HR) are presented in Table 7.

CYP2D6 = CYP2D6 (Homo sapiens, UniProt P10635); assay: drug interaction study of vibegron and tolterodine (sensitive CYP2D6 substrate); conditions: vibegron 100 mg QD at steady state
[2] = vibegron 3 mg, OAB Wet subjects
[3] = vibegron 15 mg, OAB Wet subjects
[4] = vibegron 50 mg, OAB Wet subjects
[5] = vibegron 100 mg, OAB Wet subjects

Chain of CYP2D6 (P10635 whole entry): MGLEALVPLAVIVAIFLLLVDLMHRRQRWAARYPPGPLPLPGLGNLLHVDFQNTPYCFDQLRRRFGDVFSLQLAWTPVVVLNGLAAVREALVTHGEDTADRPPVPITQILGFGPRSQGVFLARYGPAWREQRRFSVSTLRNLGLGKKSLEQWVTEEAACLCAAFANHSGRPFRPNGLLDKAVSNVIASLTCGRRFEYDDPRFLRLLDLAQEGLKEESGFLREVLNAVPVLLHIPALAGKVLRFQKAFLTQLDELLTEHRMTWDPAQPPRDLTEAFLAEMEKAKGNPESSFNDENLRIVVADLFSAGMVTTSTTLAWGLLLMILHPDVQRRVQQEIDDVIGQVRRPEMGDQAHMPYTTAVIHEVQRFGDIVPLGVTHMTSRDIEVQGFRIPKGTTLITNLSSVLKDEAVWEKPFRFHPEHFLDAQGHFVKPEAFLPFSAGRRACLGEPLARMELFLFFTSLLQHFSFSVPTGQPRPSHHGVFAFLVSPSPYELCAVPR

O=C(Nc1ccc(C[C@@H]2CC[C@H]([C@H](O)c3ccccc3)N2)cc1)[C@@H]1CCc2nccc(=O)n21 [Vibegron, (6S)-N-[4-[[(2S,5R)−5-[(R)-hydroxy(phenyl)methyl]pyrrolidin−2-yl]methyl]phenyl]−4-oxo−7,8-dihydro−6H-pyrrolo[1,2-a]pyrimidine−6-carboxamide]
Micturitions: adjusted difference from placebo at Week 8, difference in LS means (MMRM) (men and women with OAB; vibegron 3 mg): −0.5 | Micturitions: difference from placebo at Week 8, difference in LS means (cLDA) (men and women with OAB; vibegron 3 mg): −0.46 | Urgency episodes: adjusted difference from placebo at Week 8, difference in LS means (MMRM) (men and women with OAB; vibegron 3 mg): −0.2 | Urgency episodes: difference from placebo at Week 8, difference in LS means (cLDA) (men and women with OAB; vibegron 3 mg): −0.18 | Total incontinence episodes: adjusted difference from placebo at Week 8, difference in LS means (MMRM) (men and women with OAB; [2]): −0.1 | Total incontinence episodes: difference from placebo at Week 8, difference in LS means (cLDA) (men and women with OAB; [2]): −0.18 | Urgency incontinence episodes: adjusted difference from placebo at Week 8, difference in LS means (MMRM) (men and women with OAB; [2]): −0.2 | Urgency incontinence episodes: difference from placebo at Week 8, difference in LS means (cLDA) (men and women with OAB; [2]): −0.28 | Micturitions: adjusted difference from placebo at Week 8, difference in LS means (MMRM) (men and women with OAB; vibegron 15 mg): −0.5 | Micturitions: difference from placebo at Week 8, difference in LS means (cLDA) (men and women with OAB; vibegron 15 mg): −0.45 | Urgency episodes: adjusted difference from placebo at Week 8, difference in LS means (MMRM) (men and women with OAB; vibegron 15 mg): −0.7 | Urgency episodes: difference from placebo at Week 8, difference in LS means (cLDA) (men and women with OAB; vibegron 15 mg): −0.67 | Total incontinence episodes: adjusted difference from placebo at Week 8, difference in LS means (MMRM) (men and women with OAB; [3]): −0.4 | Total incontinence episodes: difference from placebo at Week 8, difference in LS means (cLDA) (men and women with OAB; [3]): −0.48 | Urgency incontinence episodes: adjusted difference from placebo at Week 8, difference in LS means (MMRM) (men and women with OAB; [3]): −0.6 | Urgency incontinence episodes: difference from placebo at Week 8, difference in LS means (cLDA) (men and women with OAB; [3]): −0.57 | Micturitions: adjusted difference from placebo at Week 8, difference in LS means (MMRM) (men and women with OAB; vibegron 50 mg): −0.7 | Micturitions: difference from placebo at Week 8, difference in LS means (cLDA) (men and women with OAB; vibegron 50 mg): −0.64 | Urgency episodes: adjusted difference from placebo at Week 8, difference in LS means (MMRM) (men and women with OAB; vibegron 50 mg): −0.8 | Urgency episodes: difference from placebo at Week 8, difference in LS means (cLDA) (men and women with OAB; vibegron 50 mg): −0.76 | Total incontinence episodes: adjusted difference from placebo at Week 8, difference in LS means (MMRM) (men and women with OAB; [4]): −0.5 | Total incontinence episodes: difference from placebo at Week 8, difference in LS means (cLDA) (men and women with OAB; [4]): −0.60 | Urgency incontinence episodes: adjusted difference from placebo at Week 8, difference in LS means (MMRM) (men and women with OAB; [4]): −0.7 | Urgency incontinence episodes: change from baseline at Week 8, mean (men and women with OAB; [4]): −1.90 | Urgency incontinence episodes: daily number of events, Week 8 mean (men and women with OAB; [4]): 0.86 | Urgency incontinence episodes: difference from placebo at Week 8, difference in LS means (cLDA) (men and women with OAB; [4]): −0.72 | Micturitions: adjusted difference from placebo at Week 8, difference in LS means (MMRM) (men and women with OAB; vibegron 100 mg): −0.9 | Micturitions: difference from placebo at Week 8, difference in LS means (cLDA) (men and women with OAB; vibegron 100 mg): −0.91 | Urgency episodes: adjusted difference from placebo at Week 8, difference in LS means (MMRM) (men and women with OAB; vibegron 100 mg): −1.3 | Micturitions, change from baseline at week 8, difference in LS means 100 mg − 50 mg (men and women with OAB; vibegron 100 mg vs 50 mg): −0.27 | Total incontinence episodes, change from baseline at week 8, difference in LS means 100 mg − 50 mg (men and women with OAB; vibegron 100 mg vs 50 mg): 0.02 | Urgency episodes, change from baseline at week 8, difference in LS means 100 mg − 50 mg (men and women with OAB; vibegron 100 mg vs 50 mg): −0.48 | Urgency incontinence episodes, change from baseline at week 8, difference in LS means 100 mg − 50 mg (men and women with OAB; vibegron 100 mg vs 50 mg): 0.01 | Total incontinence episodes: adjusted difference from placebo at Week 8, difference in LS means (MMRM) (men and women with OAB; [5]): −0.6 | Total incontinence episodes: difference from placebo at Week 8, difference in LS means (cLDA) (men and women with OAB; [5]): −0.58 | Urgency incontinence episodes: adjusted difference from placebo at Week 8, difference in LS means (MMRM) (men and women with OAB; [5]): −0.7 | Urgency incontinence episodes: daily number of events, Week 8 mean (men and women with OAB; [5]): 0.84 | Urgency incontinence episodes: difference from placebo at Week 8, difference in LS means (cLDA) (men and women with OAB; [5]): −0.71 | Maximum MA4 HR (maximum change from baseline in moving average of heart rate over 4 hours postdose), LS mean (90% CI) ([1]; vibegron 25 mg once daily): 1.47 (−3.24, 6.17) bpm | Maximum MA4 HR, difference from placebo (90% CI) ([1]; vibegron 25 mg once daily): −1.60 (−7.09, 3.88) bpm | Maximum MA4 HR (maximum change from baseline in moving average of heart rate over 4 hours postdose), LS mean (90% CI) ([1]; vibegron 50 mg once daily): 1.50 (−2.79, 5.79) bpm | Maximum MA4 HR, difference from placebo (90% CI) ([1]; vibegron 50 mg once daily): −1.57 (−6.70, 3.56) bpm | maximum MA4 HR, difference from placebo ([1]; vibegron 100 mg): < 1 bpm | Maximum MA4 HR (maximum change from baseline in moving average of heart rate over 4 hours postdose), LS mean (90% CI) ([1]; vibegron 100 mg once daily): 3.28 (−1.02, 7.57) bpm | Maximum MA4 HR, difference from placebo (90% CI) ([1]; vibegron 100 mg once daily): 0.21 (−4.93, 5.34) bpm | Maximum MA4 HR (maximum change from baseline in moving average of heart rate over 4 hours postdose), LS mean (90% CI) ([1]; vibegron 150 mg once daily): 3.17 (−1.13, 7.46) bpm | Maximum MA4 HR, difference from placebo (90% CI) ([1]; vibegron 150 mg once daily): 0.10 (−5.04, 5.23) bpm | Maximum MA4 HR (maximum change from baseline in moving average of heart rate over 4 hours postdose), LS mean (90% CI) ([1]; vibegron 200 mg once daily): 5.67 (0.96, 10.37) bpm | Maximum MA4 HR, difference from placebo (90% CI) ([1]; vibegron 200 mg once daily): 2.60 (−2.89, 8.08) bpm | Maximum MA4 HR (maximum change from baseline in moving average of heart rate over 4 hours postdose), LS mean (90% CI) ([1]; vibegron 300 mg once daily): 9.06 (4.76, 13.35) bpm | Maximum MA4 HR, difference from placebo (90% CI) ([1]; vibegron 300 mg once daily): 5.98 (0.85, 11.12) bpm | Maximum MA4 HR (maximum change from baseline in moving average of heart rate over 4 hours postdose), LS mean (90% CI) ([1]; vibegron 400 mg once daily): 10.33 (6.04, 14.63) bpm | Maximum MA4 HR, difference from placebo (90% CI) ([1]; vibegron 400 mg once daily): 7.26 (2.13, 12.39) bpm | inhibition of CYP2D6 (conclusion from tolterodine interaction study) (CYP2D6): does not inhibit CYP2D6
